Laboratory results reported in patent US6517853B1, “Process for preparing a crystal suspension” (Syngenta Limited, priority 1999, dated 2003).

Assays:
[1] = Storage of crystalline dispersion, Ostwald ripening (crystal growth) under optical microscope; assay type: physicochemical; details: 1% w/w sonicated dispersion, after one week
Excerpt: (§1) A small sample of the cooled sonicated emulsion was transferred using a capillary tube to a microscope slide and was protected with a glass cover slip. The slide was viewed using transmitted light or cross-polarised light (Zeiss microscope) and an image recorded on a calibrated micrograph. The micrograph provides information as to the size (μm), shape and degree of crystallinity of the droplets or crystals.
The number of spheres/particles in the final dispersion was similar to the number of droplets in the original hot emulsion which indicated nucleation had occurred preferentially in the droplets.

[2] = Optical microscope image analysis of droplet / crystal size in aqueous emulsion or dispersion; assay type: physicochemical; details: for crystal size immediately after sonication: all four samples (6 and 2 lhr^−1); for droplet size of hot emulsion: before cooling
Excerpt: as §1

[3] = ΔH/RT value (heat of fusion by differential scanning calorimetry divided by R and melting point in K); assay type: physicochemical
Procedure: The value ΔH/RT is a well understood expression which means the enthalpy (heat) of fusion of a compound (ΔH in kJmol^−1) at the normal melting point of the compound divided by the molar gas constant (R, where R is 8.31451 Jmol^−1K^−1) and the melting point of the compound measured on the absolute or Kelvin scale (in °K). Thus, for example, the ΔH/RT value of octadecane, which has a melting point of 28.2° C. and a heat of fusion of 61.39 kJmol^−1 (see the CRC Handbook of Chemistry and Physics, [1996-1997], 77th Edition. 6-138) is calculated as follows: […]
The heat of fusion of a compound (ΔH) may be measured by differential scanning calorimetry. A suitable method is described by McNaughton, J. L. and Mortimer, C. T. in IRS: Physical Chemistry Series 2, Butterworth, London 1975, Vol 10; subsequently reprinted by Perkin-Elmer Corpn. Norwalk, Conn., USA.

[4] = CRC Handbook of Chemistry and Physics, 77th Edition; cited from earlier work
[5] = 1% w/w aqueous dispersion, cooled to 20° C., continuous sonication 500 w
[6] = 1% w/w in aqueous Mowiol 18-88, emulsified five minutes by high shear mixer
[7] = enthalpy of fusion at normal melting point / (R × melting point in K)
[8] = 1% w/w aqueous dispersion, sonicated, higher flow (6 lhr^−1)

Compound: CCCCNC(=O)OCC#CI [IPBC, 3-iodo-2-propynyl butyl carbamate]
- Ostwald ripening (crystal growth) of sonicated dispersion [1]: no sign of “Ostwäld” ripening
- crystal size immediately after sonication [2, 5]: < 10 μm
- droplet size of hot emulsion [2, 6]: ≤ 10 μm
- ΔH/RT [3, 7]: 9.25

Compound: CCCCCCCCCCCCCCCCCC [octadecane]
- heat of fusion [4]: 61.39 kJmol^−1
- ΔH/RT ([3]; calculated from CRC Handbook melting point 28.2° C. and heat of fusion): 24.5

Compound: C=C1C2CC[C@@H](C2)C1(C)C [camphene, (1S)-2,2-dimethyl-3-methylenebicyclo[2.2.1]heptane]
- size of plates after sonication [2, 8]: 30 μm
- size of small needles after sonication [2, 8]: 2 μm
- ΔH/RT [3, 7]: 1.15

Compound: α-methyl-4-(2-methylpropyl)benzene acetic acid [ibuprofen]
- crystal size immediately after sonication [2, 5]: < 10 μm
- droplet size of hot emulsion [2, 6]: ≤ 10 μm
- crystal size (twinned crystals) without sonication ([2]; 2% aqueous dispersion, cooled without sonication, equilibrated for 18 hrs): 100-200 μm
- crystal size (crystalline spheres) immediately after sonication ([2]; 20% w/w aqueous dispersion, cooled to 20° C., continuous sonication 500 w, all four samples): < 10 μm
- droplet size of hot emulsion ([2]; 20% w/w in aqueous Mowiol 18-88, emulsified five minutes by high shear mixer): ≤ 10 μm
- ΔH/RT [3, 7]: 9.33
